Test results from patent US9890140B2, “Maleate salts of a quinazoline derivative useful as an antiangiogenic agent” (AstraZeneca AB, priority 2003, dated 2018).

Columns and labels:
[1] = Solid state stability of the free base on dehydration / micronisation (XRPD); format: physicochemical
Description: This is shown by a broadening of the peaks and formation of an amorphous 'hump'-see FIG. 4. […] The X-ray powder diffraction spectra were determined by mounting a sample of the crystalline salt on Siemens single silicon crystal (SSC) wafer mounts and spreading out the sample into a thin layer with the aid of a microscope slide. The sample was spun at 30 revolutions per minute (to improve counting statistics) and irradiated with X-rays generated by a copper long-fine focus tube operated at 40 kV and 40 mA with a wavelength of 1.5406 angstroms. The collimated X-ray source was passed through an automatic variable divergence slit set at […] and the reflected radiation directed through a 2 mm antiscatter slit and a 0.2 mm detector slit. The sample was exposed for 1 second per 0.02 degree 2-theta increment (continuous scan mode) over the range 2 degrees to 40 degrees 2-theta in theta-theta mode. The running time was 31 minutes and 41 seconds. The instrument was equipped with a scintillation counter as detector. Control and data capture was by means of a Dell Optiplex 686 NT 4.0 Workstation operating with Diffract+ software. Persons skilled in the art of X-ray powder diffraction will realise that the relative intensity of peaks can be affected by, for example, grains above 30 microns in size and non-unitary aspect ratios which may affect analysis of samples. […]

[2] = test system: VEGF-stimulated proliferation of human umbilical vein endothelial cells (HUVEC); assay: In vitro HUVEC proliferation assay, VEGF-stimulated; format: cell-based; conditions: read-out: IC50 for inhibition of VEGF-stimulated endothelial cell proliferation
Description: (b) In Vitro HUVEC Proliferation Assay
(§1) HUVEC cells were isolated in MCDB 131 (Gibco BRL)+7.5% v/v foetal calf serum (FCS) and were plated out (at passage 2 to 8), in MCDB 131+2% v/v FCS+3 μg/ml heparin+1 μg/ml hydrocortisone, at a concentration of 1000 cells/well in 96 well plates. After a minimum of 4 hours they were dosed with VEGF (3 ng/ml) and compound. The cultures were then incubated for 4 days at 37° C. with 7.5% CO2. On day 4 the cultures were pulsed with 1 μCi/well of tritiated-thymidine (Amersham product TRA 61) and incubated for 4 hours. The cells were harvested using a 96-well plate harvester (Tomtek) and then assayed for incorporation of tritium with a Beta plate counter. Incorporation of radioactivity into cells, expressed as cpm, was used to measure inhibition of growth factor-stimulated cell proliferation by compounds. This methodology was also used to assess compound effects versus basal HUVEC growth (i.e. endothelial cell proliferation in MCDB 131+2% v/v FCS […]+3 μg/ml heparin+1 μg/ml hydrocortisone without the addition of exogenous VEGF).

Calu-6 tumour xenograft = assay: In vivo solid tumour disease model; design: species or system female athymic Swiss nu/nu mice; conditions: once-daily oral, 28 days
Description: (c) In Vivo Solid Tumour Disease Model This test measures the capacity of compounds to inhibit solid tumour growth. CaLu-6 tumour xenografts were established in the flank of female athymic Swiss nu/nu mice, by subcutaneous injection of 1×10^6 Calu-6 cells/mouse in 100 μl of a 50% (v/v) solution of Matrigel in serum free culture medium. […] Tumours were measured using vernier calipers and volumes were calculated as: (l×w)×√(l×w)×(π/6), where l is the longest diameter and w the diameter perpendicular to the longest. Test compounds were administered orally once daily for a minimum of 21 days, and control animals received compound diluent. Tumours were measured twice weekly. The level of growth inhibition was calculated by comparison of the mean tumour volume of the control group versus the treatment group using a Student T test and/or a Mann-Whitney Rank Sum Test. The inhibitory effect of compound treatment was considered significant when p<0.05.

[3] = test system: basal HUVEC growth (without exogenous VEGF); assay: In vitro HUVEC proliferation assay, basal growth; format: cell-based; conditions: Homo sapiens, no exogenous VEGF, read-out: IC50 for inhibition of basal endothelial cell proliferation
Description: as §1

[4] = Crystallinity of AZD2171 salts; format: physicochemical
[5] = Dynamic vapour sorption, moisture content at 80% RH; format: physicochemical; conditions: 80% relative humidity
Description: Dynamic Vapour Sorption Analytical Instrument: Surface Measurements Systems Dynamic Vapour Sorption Analyser. About 5 mg of material contained in a quartz holder at 25° C. was subjected to humidified nitrogen at the following relative humidities (RH): 0, 20, 40, 60, 80, 95, 80, 60, 40, 20, 0% RH in duplicate.

[6] = Evidence for polymorphism from DSC thermograms; format: physicochemical
Description: Analytical Instrument: Mettler DSC820e. Typically less than 5 mg of material contained in a 40 μl aluminium pan fitted with a pierced lid was heated over the temperature range 25° C. to 325° C. at a constant heating rate of 10° C. per minute. A purge gas using nitrogen was used—flow rate 100 ml per minute.

[7] = Evidence of hydrate formation (vapour sorption or TGA); format: physicochemical; conditions: vapour sorption (hysteresis, water absorption) or TGA
Description: About 5 mg of material contained in a quartz holder at 25° C. was subjected to humidified nitrogen at the following relative humidities (RH): 0, 20, 40, 60, 80, 95, 80, 60, 40, 20, 0% RH in duplicate. Typically between 3 and 12 mg of material contained in a 70 μl alox (aluminium oxide) crucible was heated over the temperature range 25° C. to 325° C. at a constant heating rate of 10° C. per minute. A purge gas using helium was used—flow rate 50 ml per minute.

Compound	Solid form after dehydration ([1]; heating to 100° C., FIG. 3)	Solid form after particle size reduction ([1]; micronisation, FIG. 4)	IC50 [2]	Inhibition of growth of Calu-6 tumour xenograft (Calu-6 tumour xenograft; 1.5 mg/kg/day, P<0.01)	Inhibition of growth of Calu-6 tumour xenograft (Calu-6 tumour xenograft; 3 mg/kg/day, P<0.0001)	Inhibition of growth of Calu-6 tumour xenograft (Calu-6 tumour xenograft; 6 mg/kg/day, P<0.0001)	IC50 [3]	Crystalline (Yes/No) [4]	Moisture Content at 80% RH [5]	No of Polymorphs [6]	Evidence of Hydrate Formation (Yes/No) [7]
COc1cc2c(Oc3ccc4[nH]c(C)cc4c3F)ncnc2cc1OCCCN1CCCC1 [AZD2171, 4-((4-fluoro-2-methyl-1H-indol-5-yl)oxy)-6-methoxy-7-(3-(pyrrolidin-1-yl)propoxy)quinazoline]	becomes amorphous	amorphous material does indeed form	400 ± 200 pM	49%	69%	91%	> 500000 pM				
Fumarate								Yes	3.5%	≧3	No
Malonate								Yes		≧3	Yes
